Laboratory results as given in publication PMC5222732 (Journal of medicinal chemistry, 2016).
Where “and” joins values, the source holds several entries; their conditions need not be identical. Equal values may be shown once. Read-outs that look alike come from different tables or passages of the source.

Columns and labels:
μ opioid receptor (MOR) [1] = molecular target: μ opioid receptor (MOR) (Rattus norvegicus, UniProt P33535); assay type: binding
μ opioid receptor (MOR) [2] = assay type: cell-based, guinea pig
Sprague-Dawley rats [3] = assay: Tail heat algesia test; assay type: in vivo; conditions: rat, 1 mg/kg iv, morphine 4 mg/kg sc
[4] = molecular target: bovine serum albumin (BSA) (Bos taurus, UniProt P02769); assay: Determination of serum albumin binding; assay type: in vitro ADME; conditions: BSA 20 mg/mL, pH 7.4, 37 °C, 24-96 h
Chain of bovine serum albumin (BSA) (P02769 25-607): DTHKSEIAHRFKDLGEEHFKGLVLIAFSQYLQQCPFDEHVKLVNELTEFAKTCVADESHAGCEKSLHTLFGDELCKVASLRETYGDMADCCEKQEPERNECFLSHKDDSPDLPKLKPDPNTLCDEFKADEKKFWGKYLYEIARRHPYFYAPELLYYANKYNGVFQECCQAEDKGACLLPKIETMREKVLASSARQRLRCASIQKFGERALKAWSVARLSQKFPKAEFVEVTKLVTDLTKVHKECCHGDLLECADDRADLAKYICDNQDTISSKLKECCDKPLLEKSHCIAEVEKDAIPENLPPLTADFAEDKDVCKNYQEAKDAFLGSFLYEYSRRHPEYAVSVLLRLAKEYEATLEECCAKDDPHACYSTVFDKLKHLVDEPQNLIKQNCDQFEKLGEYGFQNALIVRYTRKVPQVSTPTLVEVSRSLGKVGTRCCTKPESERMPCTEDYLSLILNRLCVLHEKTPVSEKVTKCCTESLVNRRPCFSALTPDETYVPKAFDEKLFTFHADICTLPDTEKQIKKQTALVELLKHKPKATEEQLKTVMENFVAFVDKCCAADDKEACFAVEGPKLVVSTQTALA

Sprague-Dawley rats [5] = assay: Hot plate algesia test; assay type: in vivo; conditions: rat; for effect on morphine analgesia, heat withdrawal threshold (hot plate): morphine 4 mg/kg sc
Plasma stability assay = assay type: in vitro ADME; conditions: 37 °C
[6] = In vivo brain uptake study, LC-MS/MS
[7] = molecular target: mouse vas deferens (MVD), DOR (Mus musculus, UniProt P32300); assay: DOR-representative MVD functional assay; assay type: cell-based
Chain of mouse vas deferens (MVD), DOR (P32300 whole entry): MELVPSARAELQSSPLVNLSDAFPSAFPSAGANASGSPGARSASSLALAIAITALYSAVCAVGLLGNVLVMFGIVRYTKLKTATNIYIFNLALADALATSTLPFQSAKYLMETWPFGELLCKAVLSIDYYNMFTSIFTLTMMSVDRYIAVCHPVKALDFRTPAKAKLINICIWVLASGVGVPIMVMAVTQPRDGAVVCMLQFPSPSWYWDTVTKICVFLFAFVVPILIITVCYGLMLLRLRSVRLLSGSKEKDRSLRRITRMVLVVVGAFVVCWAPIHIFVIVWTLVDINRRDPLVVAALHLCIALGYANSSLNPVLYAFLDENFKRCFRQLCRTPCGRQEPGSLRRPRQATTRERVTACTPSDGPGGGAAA

κ opioid receptor (KOR) = κ opioid receptor (KOR) (Cavia porcellus, UniProt P41144); assay: GPI functional assay, κ antagonist Ke; assay type: cell-based, guinea pig
Chain of κ opioid receptor (KOR) (P41144 whole entry): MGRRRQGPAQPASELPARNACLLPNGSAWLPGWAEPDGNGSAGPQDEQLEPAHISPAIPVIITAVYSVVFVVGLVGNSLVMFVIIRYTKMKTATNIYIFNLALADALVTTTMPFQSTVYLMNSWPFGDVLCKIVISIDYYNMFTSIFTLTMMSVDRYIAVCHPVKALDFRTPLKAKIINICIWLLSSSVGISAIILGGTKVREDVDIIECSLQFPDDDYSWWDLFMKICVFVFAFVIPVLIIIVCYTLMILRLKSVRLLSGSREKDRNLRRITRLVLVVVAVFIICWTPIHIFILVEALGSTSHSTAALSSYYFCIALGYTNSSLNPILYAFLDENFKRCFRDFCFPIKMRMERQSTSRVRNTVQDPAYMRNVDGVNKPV

δ receptors (DOR) = δ receptors (DOR) (Rattus norvegicus, UniProt P33533); assay: δ opioid receptor binding, [3H]DSLET displacement from rat brain membranes; conditions: compared with cyclodal
Chain of δ receptors (DOR) (P33533 whole entry): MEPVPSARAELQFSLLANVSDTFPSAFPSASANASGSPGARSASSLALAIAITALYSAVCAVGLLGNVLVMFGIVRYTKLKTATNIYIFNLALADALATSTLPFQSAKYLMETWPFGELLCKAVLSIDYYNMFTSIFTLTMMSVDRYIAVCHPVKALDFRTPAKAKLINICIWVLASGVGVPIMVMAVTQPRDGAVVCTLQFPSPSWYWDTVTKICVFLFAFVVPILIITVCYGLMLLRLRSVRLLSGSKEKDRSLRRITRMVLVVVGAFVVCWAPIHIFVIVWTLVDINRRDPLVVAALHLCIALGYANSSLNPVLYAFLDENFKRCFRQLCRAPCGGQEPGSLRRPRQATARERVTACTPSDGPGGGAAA

Chain of μ opioid receptor (MOR) (Rattus norvegicus, UniProt P33535) (P33535 whole entry): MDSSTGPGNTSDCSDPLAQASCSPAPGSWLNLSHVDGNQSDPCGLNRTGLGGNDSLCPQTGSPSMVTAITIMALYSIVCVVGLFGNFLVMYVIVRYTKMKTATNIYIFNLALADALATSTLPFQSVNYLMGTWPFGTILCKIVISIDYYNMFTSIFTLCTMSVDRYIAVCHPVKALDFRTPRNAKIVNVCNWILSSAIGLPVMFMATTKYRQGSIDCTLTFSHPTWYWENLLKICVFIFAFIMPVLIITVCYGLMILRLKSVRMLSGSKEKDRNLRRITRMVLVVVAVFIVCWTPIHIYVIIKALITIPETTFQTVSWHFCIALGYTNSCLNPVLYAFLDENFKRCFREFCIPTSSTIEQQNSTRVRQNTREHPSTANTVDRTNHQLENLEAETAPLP

Cc1cc(O)cc(C)c1C[C@@H]1NC(=O)[C@H](CCCCN)NC(=O)[C@H](Cc2ccccc2)NC(=O)[C@@H](CCCNC(=N)N)NC1=O [compound 1, c[-D-Arg-Phe-Lys-Dmt-]]
higher MOR binding affinity (μ opioid receptor (MOR) [1]): 20 fold
GPI Ke (MOR antagonist) (μ opioid receptor (MOR) [2]): 3.12 ± 0.20 nM and 3.06 ± 0.62 nM
GPI Ke^μ (μ opioid receptor (MOR) [2]): 3.26 ± 0.84 nM
effect on tail withdrawal latency (TWL) after morphine (Sprague-Dawley rats [3]): not at a dose of 1 mg/kg
BSA absorption [4]: No decrease in peptide peak intensity was observed
effect on morphine analgesia, heat withdrawal threshold (hot plate) (Sprague-Dawley rats [5]; 1 mg/kg iv): not at the 1 mg/kg dose
effect on morphine analgesia, heat withdrawal threshold (hot plate) (Sprague-Dawley rats [5]; 5 mg/kg iv): morphine analgesia at the 30 min time point was reduced
stability in rat plasma (Plasma stability assay): stable for up to 48 h
plasma AUC ([6]; male CD1 mice, 2 mg/kg iv): 0.0303 µg·min/mL
time of maximum brain concentration ([6]; mice, 2 mg/kg iv, after administration): 30 min
activity in the MVD assay [7]: low efficacy partial agonist activity
activity in the MVD assay ([7]; listed as cyclodal): weak DOR partial agonist
Kb (κ opioid receptor (KOR); GPI Ke (KOR antagonist), against dynorphin A(1-13)): 206 ± 24 nM
Kb (κ opioid receptor (KOR); GPI Ke^κ, determined against U50,488): 40.3 ± 2.6 nM

CCCC[C@@H]1NC(=O)[C@H](Cc2ccccc2)NC(=O)[C@@H](CCCNC(=N)N)NC(=O)[C@H](Cc2c(C)cc(O)cc2C)NC1=O [compound 4, c[-D-Arg-Phe-Nle-Dmt-]]
activity in the MVD assay [7]: low efficacy partial agonist activity

Cc1cc(O)cc(C)c1C[C@@H]1NC(=O)[C@H](CCCN)NC(=O)[C@H](Cc2ccccc2)NC(=O)[C@@H](CCCNC(=N)N)NC1=O [compound 6, c[-D-Arg-Phe-Orn-Dmt-]]
GPI Ke^μ (μ opioid receptor (MOR) [2]): 16.8 ± 2.6 nM
activity in the MVD assay [7]: low efficacy partial agonist activity

Cc1cc(O)cc(C)c1C[C@@H]1NC(=O)C[C@H](CCCCN)NC(=O)[C@H](Cc2ccccc2)NC(=O)[C@@H](CCCNC(=N)N)NC1=O [compound 7, c[-D-Arg-Phe-β-hLys-Dmt-]]
Ki ratio μ/δ/κ (μ opioid receptor (MOR) [1]): 1/135/6
reduced/lower MOR binding affinity (μ opioid receptor (MOR) [1]): 2 fold
GPI Ke^μ (μ opioid receptor (MOR) [2]): 10.5 ± 1.1 nM
lower DOR binding affinity (δ receptors (DOR)): 11 fold
MVD IC50 [7]: inactive
Kb (κ opioid receptor (KOR)): 18.2 ± 1.7 nM
more potent KOR antagonist (κ opioid receptor (KOR)): 2 fold

Cc1cc(O)cc(C)c1C[C@H](N)C(=O)N[C@H](CCCNC(=N)N)C(=O)N[C@@H](Cc1ccccc1)C(=O)N[C@@H](CCCCN)C(N)=O [compound 9, H-Dmt-D-Arg-Phe-Lys-NH2]
BSA absorption [4]: No decrease in peptide peak intensity was observed
brain AUC ([6]; male CD1 mice, 2 mg/kg iv): 0.352 µg·min/g
AUC ([6]; male, CD1, mouse, in vivo, iv, 2 mg/kg): 83 ng·h/mL

C[C@@H](O)[C@H](NC(=O)[C@H]1NC(=O)[C@H]([C@@H](C)O)NC(=O)[C@H](CCCN)NC(=O)[C@@H](Cc2c[nH]c3ccccc23)NC(=O)[C@H](Cc2ccc(O)cc2)NC(=O)[C@@H](NC(=O)[C@H](N)Cc2ccccc2)CSSC1(C)C)C(N)=O [compound 10, H-D-Phe-c[Cys-Tyr-D-Trp-Orn-Thr-Pen]-Thr-NH2, reference compound]
GPI Ke^μ (μ opioid receptor (MOR) [2]): 40.9 ± 2.7 nM
activity in the MVD assay [7]: low efficacy partial agonist activity
Kb (κ opioid receptor (KOR)): 6940 ± 580 nM

CN1CC[C@]23c4c5ccc(O)c4O[C@H]2[C@@H](O)C=C[C@H]3[C@H]1C5 [morphine, reference compound]
analgesia, heat withdrawal threshold (hot plate) (Sprague-Dawley rats [5]; 4 mg/kg sc, compared to vehicle): produced analgesia compared to vehicle at the 30 and 60 min time points
